From patent US20230398130A1, “METHODS AND COMPOSITIONS FOR DIFFERENTIATING STEM CELLS” (Massachusetts Institute of Technology, priority 2020, published 2023) come the findings set out here.

Molecules are shown by their SMILES. Entries after “also recorded” stand apart in the source; their conditions may differ. Like-named read-outs stand apart in the source and are kept apart here.

In test [1] the test system is Paneth cells. Put plainly: Flow cytometry of 3D-cultured intestinal organoids (ENR+CD, 6 days): Paneth cell fraction (lysozyme-positive, CD24-mid). The format is cell-based, murine. As for the experimental part: Flow cytometry analysis (3D culture). ISC-enriched organoids cultured in 3D Matrigel with ENRCV media were passaged to 24-well plate in 3D Matrigel with ENRCV. At day zero, media were replaced to ENRCD with or without indicated compounds, and media were replaced every other day. […] Flow cytometry was performed using an LSR Fortessa (BD; Koch Institute Flow Cytometry Core at MIT). The data were analyzed using FlowJo v10 software.
Single live cells were selected by several gating strategies and Paneth cells were identified as lysozyme-high, CD24-mid, side scatter-high (SSC-high) (FIG. 27E). […] To evaluate whether the culture media supplements C and D may alter the effects of the 6 hits, Applicants also performed lysozyme assay in the canonical ENR culture condition in 3-D (because Paneth cells exist in an immature state within ENR, Applicants were unable to robustly quantify Paneth cell number via flow cytometry).
(§1) Flow cytometry. ISC-enriched organoids in 3D Matrigel culture were passaged to a 48-well plate and induced differentiation for 6 days by ENR+CD media containing DMSO or each drug indicated in the figures. DMSO- or drug-containing media were changed every other day. […] After vigorous pipetting and incubation at 37° C. for 15 min, the cell solution was diluted twice with basal media and centrifuged at 300 rcf for 3 min. […] The cell solution was centrifuged again at 300 rcf for 3 min at 4° C. to pellet the cells. […] Cells were centrifuged again for 3 min at 300 rcf and blocked with staining buffer (FACS buffer containing 0.5% Tween20 (Sigma, P2287)) for 15 min at RT in the dark. […] Flow cytometry was performed using an LSR Fortessa (BD; Koch Institute Flow Cytometry Core at MIT). Flow cytometry data were analyzed using FlowJo X v10.6.1 software.
Live Paneth cells were identified as LYZ-high, CD24-mid, side scatter-high (SSC-high) (FIG. 50F).
as §1, with “organoids in 3-D Matrigel culture” for “organoids in 3D Matrigel culture”, “to a 24- or 48-well plate” for “to a 48-well plate”

The test system of the next test is intestinal organoids. Put plainly: Population RNA-sequencing of organoids. It counts as cell-based, murine. The settings on record: ENR+CV, ENR+CD or ENR organoids. As for the experimental part: Population RNA-sequencing. Population RNA-seq was performed using a derivative of the Smart-Seq2 protocol for single cells. In brief, organoid media was aspirated and RLT+BME (Qiagen) was added to each well, and plate shaken for 30 minutes to fully lyse. Lysate was aliquoted into 4 identical fractions and stored at −80° C. until reverse transcription. RNA lysate was thawed and cleaned with a 2.2×SPRI ratio using Agencourt RNAClean XP beads (Beckman Coulter, A63987). RNA-seq was performed on a bulk population of […] using Smart-Seq2 chemistry, starting with a 2.2×SPRI ratio cleanup. After oligo-dT priming, Maxima H Minus Reverse Transcriptase (ThermoFisher EP0753) was used to synthesize cDNA with an elongation step at 52° C. before PCR amplification (15 cycles for tissue, 18 cycles for sorted basal cells) using KAPA HiFi PCR Mastermix (Kapa Biosystems KK2602). Sequencing libraries were prepared using the Nextera XT DNA tagmentation kit (Illumina FC-131-1096) with 250 pg input for each sample. Libraries were pooled post-Nextera and cleaned using Agencourt AMPure SPRI beads with successive 0.7× and 0.8× ratio SPRIs and sequenced with an Illumina 75 Cycle NextSeq500/550v2 kit (Illumina FC-404-2005) with loading density at 2.2 pM, with paired end 35 cycle read structure. Samples were sequenced at an average read depth of 8.44 million reads per sample and a total of 96 samples.
Organoid samples were aligned to the Mm10 genome and transcriptome using STAR and RSEM. […] For module scoring with the in vivo Paneth and enteroendocrine cell-defining genes, Applicants used previously published gene sets and computed persample module scores through the Seurat package.

Another test deals with lysozyme (LYZ). Put plainly: Western blotting of lysozyme in 3D-cultured intestinal organoids. The format is cell-based, murine. The settings on record: organoids cultured 6 days in ENR+CV, ENR+CD or ENR. An excerpt: Western blotting. ISC-enriched organoids cultured in 3D Matrigel with ENRCV media were passaged to 24-well plate in 3D Matrigel with ENRCV. At day zero, media were replaced to ENR or ENRCD with or without indicated compounds, and media were replaced every other day. At day six, cells were harvested from Matrigel by mechanical disruption and suspended in basal media. Cell pellets were lysed with Pierce© IP lysis buffer (ThermoFisher, 87787) containing Halt™ Protease Inhibitor Cocktail, EDTA-Free (ThermoFisher, 87785) after 3-minute centrifuge at 300×g at 4° C. Cell extracts were resolved by NuPAGE© SDS-PAGE Gel system (ThermoFisher) and electroblotted onto polyvinylidene difluoride membranes using Criterion™ Blotter (Biorad). The membranes were blocked with 2% Blotting-Grade Blocker (Biorad, 1706404) in TBS-T (50 mM Tris-HCl, 150 mM NaCl, and 0.1% Tween 20, pH 8.0) and then probed with appropriate antibodies. Detection was performed using ECL Select™ Western Blotting Detection Reagent (Amersham, 45-000-999) and ImageQuant LAS4000 (GE Healthcare).
Western blotting. Organoid-containing gel was homogenized in basal medium and centrifuged at 300 rcf for 3 min. Organoid pellet was lysed with ice-cold Pierce IP Lysis Buffer (Thermo Fisher Scientific, #87787) containing Halt Protease Inhibitor Cocktail, EDTA-Free (Thermo Fisher Scientific, #87785) and incubated on ice for 20 min. The lysate was centrifuged at 17,000 rcf for 10 min, and the supernatant was combined with NuPAGE LDS Sample Buffer (Thermo Fisher Scientific, NP0007). Protein concentration was determined by Pierce 660 nm Protein Assay (Thermo Fisher Scientific, #22660) and normalized to the lowest concentration among each sample set. […] Chemiluminescent signals were detected by LAS4000 (GE Healthcare) using Amersham ECL Select Western Blotting Detection Reagent (GE Healthcare, #45-000-999), and total protein signals were obtained by Odyssey Imaging System (LI-COR Biosciences) using REVERT Total Protein Stain Kit (LI-COR Biosciences, #926-11010).
In general terms: A western blot detects proteins with antibodies after separation by electrophoresis.

Test [2] deals with Paneth cells. The test is described as follows: Immunofluorescent imaging of organoids: LYZ+ cells per organoid area. It counts as cell-based, murine. The method, then: Immunofluorescent imaging. For immunofluorescence staining of organoids, intestinal organoids in Matrigel were fixed with 4% paraformaldehyde, then transferred to centrifuge tube. After washing with PBS, the isolated organoids were permeabilized with 1% Triton X followed by incubation with blocking buffer (1% BSA+3% Donkey Serum+0.2% Triton X in PBS) at RT. The organoids were then stained with primary antibodies and fluorescent dye-labeled secondary antibodies as well as with DAPI. Slides were covered with […]® Mounting Media (VECTOR). The following primary and secondary antibodies were used for the staining: rabbit anti-Lysozyme (1:1000, Thermo Fisher Scientific), rat anti-E-cadherin (1:1000, Thermo Fisher Scientific), Alexa Fluor 488 and 568 secondary antibodies (1:1000, Invitrogen). Images were acquired with a confocal laser scanning microscope (Nikon Eclipse 90i). For the analysis of Lysozyme+ cells per organoid area, the number of counted Lysozyme+ cells were normalized to measured organoid surface area. Image J was used for the data analysis.

Test [3] relates to ISC-enriched organoid cultures. It counts as cell-based. The method, then:
Using the ISC-enriched organoid cultures, Applicants sought to assess the role of vitamin D's multiple metabolites on ISC proliferation and differentiation in vitro. Treatment of ISC-enriched organoid cultures with multiple vitamin D metabolites at 50 nM drives a reduction in cell number after 4 days of exposure (FIG. 45A). This reduction is attributed to reduced ISC self-renewal and differentiation to terminal epithelial cell types. To confirm increased differentiation of ISC-enriched organoids, mRNA markers of epithelial cells were assessed via quantitative PCR (FIG. 45B). […] By enhancing ISC differentiation, Applicants hypothesized that it may be possible to enhance barrier repair or integrity in IBD. Such effect could act synergistically with other known effects of vitamin D, and provide enhanced therapeutic benefit.
After observing that calcitriol, the primary active vitamin D metabolite, drove the most profound differentiation effect on in vitro ISC cultures, Applicants sought to investigate whether or not this effect is dose-dependent. Again, Applicants used the ISC-enriched organoid culture, and exposed varying concentrations of calcitriol for 4-day treatment periods.
Given that WNT signaling is central to ISC self-renewal and maintenance, Applicants investigated the role of calcitriol on ISC proliferation and WNT signal activity.

[4] abbreviates: calcitriol 1 nM to 100 nM, 4-day treatment.

As for `NC(=O)/C(=C/n1cnc(-c2cc(C(F)(F)F)cc(C(F)(F)F)c2)n1)c1cncnc1` [KPT-8602], in the test with Paneth cells [1] (160 nM KPT-8602, ENR+CD 6 days), the “Paneth cell proportion in organoids” value is listed as “statistically significant increases in Paneth cell representation; also recorded: increased the proportion of PC; also recorded: increasing the proportion of Paneth cells”. Further, the “secretory cell identity (Paneth, goblet, EEC) from bulk transcripts” value in the test with intestinal organoids was “increase secretory cells (Paneth, goblet, and EEC)”. In the test on lysozyme (LYZ), the “LYZ abundance per unit protein (Western blotting)” value is “appreciably increase LYZ abundance”. For the same compound, the “proportion of Paneth cells (IF imaging)” value with Paneth cells [2] (160 nM KPT-8602, ENR+CD 3 days) is reported as “increasing the proportion of Paneth cells”.
As to `CCC(=C/[C@H](C)C/C=C/C(C)=C/[C@@H](C)C(=O)[C@@H](C)[C@H](O)[C@@H](C)C/C(C)=C/C(=O)O)/C=C/[C@@H]1OC(=O)C=C[C@@H]1C` [Leptomycin B], the “Paneth cell proportion in organoids” value in the test on Paneth cells [1] (2 ng/mL Leptomycin B, ENR+CD 6 days) is on record as “statistically significant increases in Paneth cell representation”; in the test with Paneth cells [1] (2 ng/mL Leptomycin B, ENR+CD 6 days, listed as leptomycin B), “increased the proportion of PC; also recorded: increasing the proportion of Paneth cells”. Also, the “LYZ abundance per unit protein (Western blotting)” value in the test with lysozyme (LYZ) was “appreciably increase LYZ abundance”. Also, the “proportion of Paneth cells (IF imaging)” value in the test with Paneth cells [2] (2 ng/mL Leptomycin B, ENR+CD 3 days) was “increasing the proportion of Paneth cells”.
For `C=C1/C(=C\C=C2/CCC[C@]3(C)[C@@H]([C@H](C)CCCC(C)(C)O)CC[C@@H]23)C[C@@H](O)C[C@@H]1O` [calcitriol, 1α,25-dihydroxyvitamin D3], the “ISC differentiation (mRNA markers of epithelial cells)” value in test [3] (50 nM, 4 days, vs control culture) was “having the most profound effect”. Moreover, in test [3] (setting [4]), the cell number result was “a decrease in cell number” and the “markers of intestinal epithelial cells (mRNA), ISC differentiation” value is “an increase in markers of intestinal epithelial cells in a dose-dependent manner”. Further, in test [3] (calcitriol 1 nM to 100 nM, 4-day treatment, listed as Calcitriol), the “markers of intestinal epithelial cells (mRNA), ISC differentiation” value is reported as “dose-dependent differentiation effect, primarily to goblet cells”. Moreover, in test [3] (calcitriol, 4 days), the cell cycle markers result was “a weak connection to cell cycle inhibition”. Further, the “proliferation (Ki67)” value in test [3] (calcitriol, 4 days, all doses) was “minimal change in proliferation at all doses”. Also, the LGR5 expression entry in test [3] (increasing calcitriol dosage, 4 days) is “a clear reduction in LGR5”.
